From ChEMBL document CHEMBL5223174, “Design, synthesis, and biological evaluation of novel N-Benzyl piperidine derivatives as potent HDAC/AChE inhibitors for Alzheimer's disease” (Bioorg Med Chem, 2023) come the findings set out here.

As a reminder, the IC50 is the concentration needed to halve the response being measured.

One test addresses Histone deacetylase. Type of test: cell-based, Homo sapiens. The settings on record: hela.
The next test concerns the target Acetylcholinesterase (Electrophorus electricus, UniProt O42275). Nature of the test: Inhibition of electric eel AChE.
Another test has as its target Cholinesterase (Equus caballus, UniProt P81908). Nature of the test: Inhibition of equine serum BChE. It is filed as cell-free.
Test [1] is described as follows: Selectivity index, ratio of IC50 for equine serum BChE to IC50 for electric eel AChE.

Chain of Cholinesterase (P81908 whole entry): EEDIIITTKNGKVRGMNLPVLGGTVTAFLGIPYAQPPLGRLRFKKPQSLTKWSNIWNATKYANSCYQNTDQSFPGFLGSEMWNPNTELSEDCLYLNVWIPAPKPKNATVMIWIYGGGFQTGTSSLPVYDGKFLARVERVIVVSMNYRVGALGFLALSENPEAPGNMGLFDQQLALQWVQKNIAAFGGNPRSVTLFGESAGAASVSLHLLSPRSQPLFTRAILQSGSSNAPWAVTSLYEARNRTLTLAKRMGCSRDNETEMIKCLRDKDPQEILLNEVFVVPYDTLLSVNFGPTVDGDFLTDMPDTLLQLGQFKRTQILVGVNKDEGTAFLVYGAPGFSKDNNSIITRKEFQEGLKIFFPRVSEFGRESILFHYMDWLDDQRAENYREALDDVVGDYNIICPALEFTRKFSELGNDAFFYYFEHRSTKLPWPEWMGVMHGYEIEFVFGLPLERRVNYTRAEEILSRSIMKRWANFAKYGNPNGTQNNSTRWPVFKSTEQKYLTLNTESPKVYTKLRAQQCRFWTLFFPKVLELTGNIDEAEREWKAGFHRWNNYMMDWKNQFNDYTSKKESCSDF
Chain of Acetylcholinesterase (O42275 whole entry): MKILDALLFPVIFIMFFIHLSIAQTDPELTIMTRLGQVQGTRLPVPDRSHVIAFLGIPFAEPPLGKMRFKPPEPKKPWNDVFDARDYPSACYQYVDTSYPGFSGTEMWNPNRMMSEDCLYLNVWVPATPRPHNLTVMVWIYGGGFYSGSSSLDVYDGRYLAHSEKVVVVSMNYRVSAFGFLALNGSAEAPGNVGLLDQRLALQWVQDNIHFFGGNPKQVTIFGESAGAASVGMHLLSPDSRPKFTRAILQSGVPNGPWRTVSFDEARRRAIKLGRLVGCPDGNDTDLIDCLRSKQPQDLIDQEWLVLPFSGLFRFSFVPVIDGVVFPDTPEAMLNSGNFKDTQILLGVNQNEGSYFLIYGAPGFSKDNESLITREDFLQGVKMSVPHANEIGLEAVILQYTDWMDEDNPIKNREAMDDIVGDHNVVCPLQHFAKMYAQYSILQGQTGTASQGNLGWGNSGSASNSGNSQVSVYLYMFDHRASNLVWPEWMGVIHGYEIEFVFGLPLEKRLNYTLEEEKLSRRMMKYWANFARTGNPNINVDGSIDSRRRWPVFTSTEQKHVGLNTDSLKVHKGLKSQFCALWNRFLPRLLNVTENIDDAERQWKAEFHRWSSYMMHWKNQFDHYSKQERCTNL
Description for Histone deacetylase: Inhibition of HDAC in human HeLa cell extracts

As for `O=C(CCCCCCC(=O)NCC1CCN(Cc2ccccc2)CC1)NO`, the 50% inhibitory concentration (IC50) against Histone deacetylase is 0.59 µM; against Acetylcholinesterase it was “Not Active”; on Cholinesterase (read-out: IC50), 1.62 µM.

With `O=C(/C=C/c1ccc(C(=O)NCC2CCN(Cc3ccccc3)CC2)cc1)NO`, the figures for the half-maximal inhibitory concentration (IC50) at Histone deacetylase, on Acetylcholinesterase (read-out: IC50) and against Cholinesterase were 0.28 µM, 8.18 µM and “Not Active”, respectively. Moreover, in test [1], the Ratio IC50 is > 10.

As to `O=C(/C=C/c1cccc(C(=O)NCC2CCN(Cc3ccccc3)CC2)c1)NO`, the half-inhibitory concentration (IC50) is 0.067 µM on Histone deacetylase, 14.6 µM on Acetylcholinesterase (read-out: IC50) and “Not Active” against Cholinesterase.

In the case of `COc1cc(CCC(=O)Nc2ccccc2N)ccc1C(=O)NCC1CCN(Cc2ccccc2)CC1`, the IC50 against Histone deacetylase was > 10 µM; at Acetylcholinesterase (read-out: IC50) it was 31.3 µM; at Cholinesterase (read-out: IC50), 10.6 µM.

With `Nc1ccccc1NC(=O)c1cccc(C(=O)NCC2CCN(Cc3ccccc3)CC2)c1`, the IC50 against Histone deacetylase worked out at 2.13 µM; on Acetylcholinesterase (read-out: IC50) it was 32.6 µM; on Cholinesterase (read-out: IC50) it was 7.96 µM.

Take `Nc1ccccc1NC(=O)c1ccc(CNCC2CCN(Cc3ccccc3)CC2)cc1`: the IC50 at Histone deacetylase was > 10 µM; on Acetylcholinesterase (read-out: IC50) it was 9.84 µM; on Cholinesterase (read-out: IC50) it was 12.6 µM.

In the case of `COc1cc(CCC(=O)NO)ccc1C(=O)NCC1CCN(Cc2ccccc2)CC1`, the concentration for half-maximal inhibition (IC50) was 0.17 µM against Histone deacetylase, 6.89 µM at Acetylcholinesterase (read-out: IC50) and “Not Active” against Cholinesterase. For the same compound, the Ratio IC50 in test [1] is > 10.

For the compound `O=C(NO)c1ccc(CNCC2CCN(Cc3ccccc3)CC2)cc1`, the 50% inhibitory concentration (IC50) was 1.42 µM against Histone deacetylase, 6.03 µM on Acetylcholinesterase (read-out: IC50) and 13.2 µM on Cholinesterase (read-out: IC50).

`O=C(/C=C/c1ccc(C(=O)NO)cc1)NCC1CCN(Cc2ccccc2)CC1`: the figures for the IC50 against Histone deacetylase, on Acetylcholinesterase (read-out: IC50) and against Cholinesterase were 2.1 µM, 4.07 µM and “Not Active”, respectively. Also, in test [1], the Ratio IC50 is > 10.

In the case of `Nc1ccccc1NC(=O)CCCCCC(=O)NCC1CCN(Cc2ccccc2)CC1`, the results for the 50% inhibitory concentration (IC50) against Histone deacetylase, at Acetylcholinesterase (read-out: IC50) and on Cholinesterase (read-out: IC50) were > 10 µM, 7.06 µM and 6.19 µM, respectively.

As to `Nc1ccccc1NC(=O)c1cccc(S(=O)(=O)NCC2CCN(Cc3ccccc3)CC2)c1`, the half-inhibitory concentration (IC50) at Histone deacetylase amounted to 1.28 µM; on Acetylcholinesterase (read-out: IC50), 7.41 µM; on Cholinesterase (read-out: IC50) it was 5.23 µM.

For `O=C(NO)c1cccc(C(=O)NCC2CCN(Cc3ccccc3)CC2)c1`, the values for the IC50 against Histone deacetylase, against Acetylcholinesterase and at Cholinesterase were 0.8 µM, “Not Active” and “Not Active”, respectively.

`O=C(CCc1cccc(C(=O)NCC2CCN(Cc3ccccc3)CC2)c1)NO`: the half-maximal inhibitory concentration (IC50) against Histone deacetylase was 0.47 µM; at Acetylcholinesterase, “Not Active”; on Cholinesterase, “Not Active”.

Turning to `COc1cc(/C=C/C(=O)Nc2ccccc2N)ccc1C(=O)NCC1CCN(Cc2ccccc2)CC1`, the IC50 against Histone deacetylase is 1.25 µM; on Acetylcholinesterase (read-out: IC50), 8.89 µM; at Cholinesterase (read-out: IC50), 6.56 µM.

For the compound `Nc1ccccc1NC(=O)c1ccc(S(=O)(=O)NCC2CCN(Cc3ccccc3)CC2)cc1`, the half-inhibitory concentration (IC50) at Histone deacetylase is > 10 µM; at Acetylcholinesterase (read-out: IC50) it was 0.49 µM; against Cholinesterase, “Not Active”. For the same compound, the Ratio IC50 in test [1] was > 102.

Consider `O=C(NO)c1ccc(C(=O)NCC2CCN(Cc3ccccc3)CC2)cc1`, for which the values for the concentration for half-maximal inhibition (IC50) against Histone deacetylase, on Acetylcholinesterase (read-out: IC50) and at Cholinesterase (read-out: IC50) were 0.14 µM, 39.7 µM and 3.28 µM, respectively.

Regarding `Nc1ccccc1NC(=O)c1ccc(CCC(=O)NCC2CCN(Cc3ccccc3)CC2)cc1`, the IC50 is > 10 µM against Histone deacetylase, 12.4 µM at Acetylcholinesterase (read-out: IC50) and “Not Active” at Cholinesterase.

`O=C(NO)c1ccc(S(=O)(=O)NCC2CCN(Cc3ccccc3)CC2)cc1`: the IC50 against Histone deacetylase is 0.45 µM; at Acetylcholinesterase (read-out: IC50), 3.22 µM; on Cholinesterase, “Not Active”. Further, the Ratio IC50 in test [1] was > 10.

As to `Nc1ccccc1NC(=O)c1ccc(/C=C/C(=O)NCC2CCN(Cc3ccccc3)CC2)cc1`, the results for the half-maximal inhibitory concentration (IC50) on Histone deacetylase, at Acetylcholinesterase (read-out: IC50) and at Cholinesterase (read-out: IC50) were > 10 µM, 2.12 µM and 15.6 µM, respectively. Moreover, the Ratio IC50 in test [1] was > 10.

In the case of `O=C(CCc1ccc(C(=O)NO)cc1)NCC1CCN(Cc2ccccc2)CC1`, the figures for the half-maximal inhibitory concentration (IC50) against Histone deacetylase, against Acetylcholinesterase and against Cholinesterase were > 10 µM, “Not Active” and “Not Active”, respectively.

As for `Nc1ccccc1NC(=O)CCCCCCC(=O)NCC1CCN(Cc2ccccc2)CC1`, the IC50 was > 10 µM on Histone deacetylase, “Not Active” against Acetylcholinesterase and “Not Active” against Cholinesterase.

`O=C(NO)c1cccc(S(=O)(=O)NCC2CCN(Cc3ccccc3)CC2)c1`: the concentration for half-maximal inhibition (IC50) at Histone deacetylase was 6.8 µM; at Acetylcholinesterase (read-out: IC50), 19.2 µM; against Cholinesterase, “Not Active”.

For the compound `Nc1ccccc1NC(=O)CCCCCCCC(=O)NCC1CCN(Cc2ccccc2)CC1`, the results for the IC50 against Histone deacetylase, at Acetylcholinesterase (read-out: IC50) and on Cholinesterase (read-out: IC50) were 1.14 µM, 11.5 µM and 13.8 µM, respectively.

In the case of `O=C(CCCCCCCC(=O)NCC1CCN(Cc2ccccc2)CC1)NO`, the results for the concentration for half-maximal inhibition (IC50) against Histone deacetylase, on Acetylcholinesterase (read-out: IC50) and on Cholinesterase (read-out: IC50) were 0.43 µM, 26.2 µM and 13.7 µM, respectively.

As for `O=C(CCc1ccc(C(=O)NCC2CCN(Cc3ccccc3)CC2)cc1)NO`, the values for the IC50 against Histone deacetylase, against Acetylcholinesterase and on Cholinesterase were 1 µM, “Not Active” and “Not Active”, respectively.

On to `Nc1ccccc1NC(=O)/C=C/c1cccc(C(=O)NCC2CCN(Cc3ccccc3)CC2)c1`, for which the half-inhibitory concentration (IC50) against Histone deacetylase is 1.62 µM; on Acetylcholinesterase it was “Not Active”; against Cholinesterase, “Not Active”.

In the case of `Nc1ccccc1NC(=O)CCc1ccc(C(=O)NCC2CCN(Cc3ccccc3)CC2)cc1`, the concentration for half-maximal inhibition (IC50) on Histone deacetylase is 0.46 µM; on Acetylcholinesterase (read-out: IC50), 9.13 µM; at Cholinesterase (read-out: IC50), 13.4 µM.

In the case of `Nc1ccccc1NC(=O)CCc1cccc(C(=O)NCC2CCN(Cc3ccccc3)CC2)c1`, the IC50 against Histone deacetylase was determined as 1.2 µM; at Acetylcholinesterase (read-out: IC50) it was 9.97 µM; on Cholinesterase (read-out: IC50), 9.49 µM.

On to `COc1cc(/C=C/C(=O)NO)ccc1C(=O)NCC1CCN(Cc2ccccc2)CC1`, for which the half-inhibitory concentration (IC50) at Histone deacetylase stood at 0.02 µM; at Acetylcholinesterase (read-out: IC50), 24.6 µM; at Cholinesterase (read-out: IC50), 25.2 µM.

`O=C(CCCCCC(=O)NCC1CCN(Cc2ccccc2)CC1)NO`: the concentration for half-maximal inhibition (IC50) is > 10 µM at Histone deacetylase, 32.8 µM at Acetylcholinesterase (read-out: IC50) and “Not Active” at Cholinesterase.

For the compound `Nc1ccccc1NC(=O)/C=C/c1ccc(C(=O)NCC2CCN(Cc3ccccc3)CC2)cc1`, the IC50 on Histone deacetylase is 0.18 µM; on Acetylcholinesterase (read-out: IC50) it was 13.8 µM; at Cholinesterase, “Not Active”.
